Experimental data published in patent US11802111B2, “Cyclobutyl amide monoacylglycerol lipase modulators” (Janssen Pharmaceutica NV, priority 2020, dated 2023).

Target: human MGL from HeLa cells (Homo sapiens (Human), UniProt Q99685)
Test: MGL in vitro activity assay ([glycerol-1,3-3H]-oleoyl glycerol hydrolysis, activated carbon filtration)
Type: biochemical
Conditions: 300 nM [Glycerol-1,3-3H]-oleoyl glycerol, one hour
Summary of the method: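 Endogenous human MGL in HeLa cells/homogenates incubated 1 h with test compounds and 300 nM [glycerol-1,3-3H]-oleoyl glycerol. Released 3H-glycerol passing an activated carbon filter counted as activity; screening at 10 μM compound, top IC50 concentration set empirically.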

Chain of human MGL from HeLa cells (Q99685 whole entry): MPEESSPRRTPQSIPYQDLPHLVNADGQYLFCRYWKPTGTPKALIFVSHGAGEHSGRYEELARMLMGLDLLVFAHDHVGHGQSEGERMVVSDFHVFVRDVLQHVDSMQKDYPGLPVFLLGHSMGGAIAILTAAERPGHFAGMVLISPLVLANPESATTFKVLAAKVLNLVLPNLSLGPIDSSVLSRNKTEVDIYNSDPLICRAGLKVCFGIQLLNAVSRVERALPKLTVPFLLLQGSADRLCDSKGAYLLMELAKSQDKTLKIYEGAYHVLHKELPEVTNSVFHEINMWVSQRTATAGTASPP

| SMILES | IC50 [nM] |
| --- | --- |
| Cc1cc(CC2CC3(C2)CN(C(=O)[C@H]2C[C@@](C)(O)C2)C3)ccc1F [Example 228, (6-(4-Fluoro-3-methylbenzyl)-2-azaspiro[3.3]heptan-2-yl)((1s,3s)-3-hydroxy-3-methylcyclobutyl)methanone] | 15 |
| Cc1ccc(CC2CC3(C2)CN(C(=O)[C@H]2C[C@@](C)(O)C2)C3)cc1F [Example 229, (6-(3-Fluoro-4-methylbenzyl)-2-azaspiro[3.3]heptan-2-yl)((1s,3s)-3-hydroxy-3-methylcyclobutyl)methanone] | 12 |
| Cc1ccc(CC2CC3(C2)CN(C(=O)[C@H]2C[C@@](C)(O)C2)C3)c(F)c1 [Example 230, (6-(2-Fluoro-4-methylbenzyl)-2-azaspiro[3.3]heptan-2-yl)((1s,3s)-3-hydroxy-3-methylcyclobutyl)methanone] | 6.4 |
| C[C@]1(O)C[C@@H](C(=O)N2CC3(CC(Cc4cccc(C(F)F)c4)C3)C2)C1 [Example 231, (6-(3-(Difluoromethyl)benzyl)-2-azaspiro[3.3]heptan-2-yl)((1s,3s)-3-hydroxy-3-methylcyclobutyl)methanone] | 14 |
| C[C@]1(O)C[C@@H](C(=O)N2CC3(CC(Cc4ccc(C(F)F)cc4)C3)C2)C1 [Example 232, (6-(4-(Difluoromethyl)benzyl)-2-azaspiro[3.3]heptan-2-yl)((1s,3s)-3-hydroxy-3-methylcyclobutyl)methanone] | 11 |
| CC(C)(C)c1cccc(CC2CC3(C2)CN(C(=O)[C@H]2C[C@@](C)(O)C2)C3)n1 [Example 233, (6-((6-(tert-Butyl)pyridin-2-yl)methyl)-2-azaspiro[3.3]heptan-2-yl)((1s,3s)-3-hydroxy-3-methylcyclobutyl)methanone] | 273 |
| C[C@]1(O)C[C@@H](C(=O)N2CC3(CCC(Cc4ccccc4)CC3)C2)C1 [Example 235, (7-Benzyl-2-azaspiro[3.5]nonan-2-yl)((1s,3s)-3-hydroxy-3-methylcyclobutyl)methanone] | 40 |
| Cc1ccccc1CC1CCC2(CC1)CN(C(=O)[C@H]1C[C@@](C)(O)C1)C2 [Example 236, ((1s,3s)-3-Hydroxy-3-methylcyclobutyl)(7-(2-methylbenzyl)-2-azaspiro[3.5]nonan-2-yl)methanone] | 49 |
| C[C@]1(O)C[C@@H](C(=O)N2CC3(CC(Cn4ccc(C(F)(F)F)n4)C3)C2)C1 [Example 237, ((1s,3s)-3-Hydroxy-3-methylcyclobutyl)(6-((3-(trifluoromethyl)-1H-pyrazol-1-yl)methyl)-2-azaspiro[3.3]heptan-2-yl)methanone] | 840 |
| Cc1ccccc1OC1CC2(C1)CN(C(=O)[C@H]1C[C@@](C)(O)C1)C2 [Example 238, ((1s,3s)-3-Hydroxy-3-methylcyclobutyl)(6-(o-tolyloxy)-2-azaspiro[3.3]heptan-2-yl)methanone] | 541 |
| CC(C)(C)c1cccc(OC2CC3(C2)CN(C(=O)[C@H]2C[C@@](C)(O)C2)C3)c1 [Example 244, (6-(3-(tert-Butyl)phenoxy)-2-azaspiro[3.3]heptan-2-yl)((1s,3s)-3-hydroxy-3-methylcyclobutyl)methanone] | 63 |
| Cc1ccc(OC2CC3(CCN(C(=O)[C@H]4C[C@@](C)(O)C4)CC3)C2)cc1 [Example 245, ((1s,3s)-3-Hydroxy-3-methylcyclobutyl)(2-(p-tolyloxy)-7-azaspiro[3.5]nonan-7-yl)methanone] | 329 |
| CC(C)(C)c1ccc(OC2CC3(C2)CN(C(=O)[C@H]2C[C@@](C)(O)C2)C3)cc1 [Example 246, (6-(4-(tert-Butyl)phenoxy)-2-azaspiro[3.3]heptan-2-yl)((1s,3s)-3-hydroxy-3-methylcyclobutyl)methanone] | 84 |
| CC(C)c1cccc(OC2CC3(C2)CN(C(=O)[C@H]2C[C@@](C)(O)C2)C3)c1C(F)(F)F [Example 251, ((1s,3s)-3-Hydroxy-3-methylcyclobutyl)(6-(3-isopropyl-2-(trifluoromethyl)phenoxy)-2-azaspiro[3.3]heptan-2-yl)methanone] | 7.4 |
| CC(C)c1ccccc1OC1CCC2(CC1)CN(C(=O)[C@H]1C[C@@](C)(O)C1)C2 [Example 265, ((1s,3s)-3-Hydroxy-3-methylcyclobutyl)(7-(2-isopropylphenoxy)-2-azaspiro[3.5]nonan-2-yl)methanone] | 37 |
| COC1(c2cccc(C(C)C)c2)CCC2(CC1)CN(C(=O)[C@H]1C[C@@](C)(O)C1)C2 [Example 266, ((1s,3s)-3-Hydroxy-3-methylcyclobutyl)(7-(3-isopropylphenyl)-7-methoxy-2-azaspiro[3.5]nonan-2-yl)methanone] | 1.2 |
| Cc1cc(C2CC3(C2)CN(C(=O)[C@H]2C[C@@](C)(O)C2)C3)cc(C(F)(F)F)c1 [Example 267, ((1s,3s)-3-Hydroxy-3-methylcyclobutyl)(6-(3-methyl-5-(trifluoromethyl)phenyl)-2-azaspiro[3.3]heptan-2-yl)methanone] | 65 |
| Cn1ccc2cc(C3CC4(C3)CN(C(=O)[C@H]3C[C@@](C)(O)C3)C4)cnc21 [Example 268, ((1s,3s)-3-Hydroxy-3-methylcyclobutyl)(6-(1-methyl-1H-pyrrolo[2,3-b]pyridin-5-yl)-2-azaspiro[3.3]heptan-2-yl)methanone] | 2400 |

Now from value to compound:

| IC50 [nM] | SMILES |
| --- | --- |
| 0.4 | Cc1cc(OC2CCC3(CC2)CN(C(=O)[C@H]2C[C@@](C)(O)C2)C3)ccc1C(F)(F)F [Example 239, ((1s,3s)-3-Hydroxy-3-methylcyclobutyl)(7-(3-methyl-4-(trifluoromethyl)phenoxy)-2-azaspiro[3.5]nonan-2-yl)methanone] |
| 27 | CC(C)c1cccc(OC2CCC3(CC2)CN(C(=O)[C@H]2C[C@@](C)(O)C2)C3)c1 [Example 241, ((1s,3s)-3-Hydroxy-3-methylcyclobutyl)(7-(3-isopropylphenoxy)-2-azaspiro[3.5]nonan-2-yl)methanone] |
| 6.3 | CC(C)c1ccc(OC2CCC3(CC2)CN(C(=O)[C@H]2C[C@@](C)(O)C2)C3)cc1 [Example 242, ((1s,3s)-3-Hydroxy-3-methylcyclobutyl)(7-(4-isopropylphenoxy)-2-azaspiro[3.5]nonan-2-yl)methanone] |
| 14 | Cc1cc(OC2CC3(C2)CN(C(=O)[C@H]2C[C@@](C)(O)C2)C3)ccc1C(F)(F)F [Example 247, ((1s,3s)-3-Hydroxy-3-methylcyclobutyl)(6-(3-methyl-4-(trifluoromethyl)phenoxy)-2-azaspiro[3.3]heptan-2-yl)methanone] |
| 114 | Cc1ccc(OC2CC3(C2)CN(C(=O)[C@H]2C[C@@](C)(O)C2)C3)cc1C(F)(F)F [Example 248, ((1s,3s)-3-Hydroxy-3-methylcyclobutyl)(6-(4-methyl-3-(trifluoromethyl)phenoxy)-2-azaspiro[3.3]heptan-2-yl)methanone] |
| 20 | Cc1cc(C(F)(F)F)ccc1OC1CC2(C1)CN(C(=O)[C@H]1C[C@@](C)(O)C1)C2 [Example 249, ((1s,3s)-3-Hydroxy-3-methylcyclobutyl)(6-(2-methyl-4-(trifluoromethyl)phenoxy)-2-azaspiro[3.3]heptan-2-yl)methanone] |
| 35 | Cc1cccc(OC2CC3(C2)CN(C(=O)[C@H]2C[C@@](C)(O)C2)C3)c1C(F)(F)F [Example 250, ((1s,3s)-3-Hydroxy-3-methylcyclobutyl)(6-(3-methyl-2-(trifluoromethyl)phenoxy)-2-azaspiro[3.3]heptan-2-yl)methanone] |
| 47 | Cc1c(OC2CC3(C2)CN(C(=O)[C@H]2C[C@@](C)(O)C2)C3)cccc1C(F)(F)F [Example 252, ((1s,3s)-3-Hydroxy-3-methylcyclobutyl)(6-(2-methyl-3-(trifluoromethyl)phenoxy)-2-azaspiro[3.3]heptan-2-yl)methanone] |
| 8.1 | CC(C)(C)c1cccc(OC2CCC3(CC2)CN(C(=O)[C@H]2C[C@@](C)(O)C2)C3)c1 [Example 257, (7-(3-(tert-Butyl)phenoxy)-2-azaspiro[3.5]nonan-2-yl)((1s,3s)-3-hydroxy-3-methylcyclobutyl)methanone] |
| 0.2 | Cc1cc(C(F)(F)F)ccc1OC1CCC2(CC1)CN(C(=O)[C@H]1C[C@@](C)(O)C1)C2 [Example 258, ((1s,3s)-3-Hydroxy-3-methylcyclobutyl)(7-(2-methyl-4-(trifluoromethyl)phenoxy)-2-azaspiro[3.5]nonan-2-yl)methanone] |
| 3 | Cc1ccc(OC2CCC3(CC2)CN(C(=O)[C@H]2C[C@@](C)(O)C2)C3)cc1C(F)(F)F [Example 259, ((1s,3s)-3-Hydroxy-3-methylcyclobutyl)(7-(4-methyl-3-(trifluoromethyl)phenoxy)-2-azaspiro[3.5]nonan-2-yl)methanone] |
| 10 | CC(C)(C)c1ccc(OC2CCC3(CC2)CN(C(=O)[C@H]2C[C@@](C)(O)C2)C3)cc1 [Example 260, (7-(4-(tert-Butyl)phenoxy)-2-azaspiro[3.5]nonan-2-yl)((1s,3s)-3-hydroxy-3-methylcyclobutyl)methanone] |
| 7.2 | C[C@]1(O)C[C@@H](C(=O)N2CC3(CCC(Oc4ccc(C5CC5)cc4)CC3)C2)C1 [Example 261, (7-(4-Cyclopropylphenoxy)-2-azaspiro[3.5]nonan-2-yl)((1s,3s)-3-hydroxy-3-methylcyclobutyl)methanone] |
| 3.2 | C[C@]1(O)C[C@@H](C(=O)N2CC3(CCC(Oc4ccc(OC(F)(F)F)cc4)CC3)C2)C1 [Example 262, ((1s,3s)-3-Hydroxy-3-methylcyclobutyl)(7-(4-(trifluoromethoxy)phenoxy)-2-azaspiro[3.5]nonan-2-yl)methanone] |
| 12 | C[C@]1(O)C[C@@H](C(=O)N2CC3(CCC(Oc4cccc(OC(F)(F)F)c4)CC3)C2)C1 [Example 263, ((1s,3s)-3-Hydroxy-3-methylcyclobutyl)(7-(3-(trifluoromethoxy)phenoxy)-2-azaspiro[3.5]nonan-2-yl)methanone] |
| 32 | C[C@]1(O)C[C@@H](C(=O)N2CC3(CCC(Oc4cccc(C5CC5)c4)CC3)C2)C1 [Example 264, (7-(3-Cyclopropylphenoxy)-2-azaspiro[3.5]nonan-2-yl)((1s,3s)-3-hydroxy-3-methylcyclobutyl)methanone] |
